Reference: patent US8163781B2, “Bi-aryl aminotetralines” (Hoffman-La Roche Inc., priority 2008, dated 2012)

Target: T1, human CRTH2 (Homo sapiens, UniProt Q9Y5Y4)
T1 construct: expressed in transfected cells
T1 sequence (Q9Y5Y4 1-395): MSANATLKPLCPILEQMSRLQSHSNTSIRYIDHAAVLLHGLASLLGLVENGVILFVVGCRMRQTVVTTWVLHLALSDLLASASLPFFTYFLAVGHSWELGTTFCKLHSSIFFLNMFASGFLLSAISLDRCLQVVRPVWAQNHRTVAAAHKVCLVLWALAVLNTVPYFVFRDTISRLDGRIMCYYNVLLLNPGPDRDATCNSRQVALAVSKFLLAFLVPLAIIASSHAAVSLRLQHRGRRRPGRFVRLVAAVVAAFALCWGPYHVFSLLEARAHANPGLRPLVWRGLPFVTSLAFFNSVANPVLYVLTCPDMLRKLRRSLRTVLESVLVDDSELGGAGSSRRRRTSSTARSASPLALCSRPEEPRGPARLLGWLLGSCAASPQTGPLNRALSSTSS
Assay: Human CRTH2 Receptor Binding Assay
Conditions: whole cell binding, CHO-K1 cells expressing human CRTH2, 20 nM [3H]ramatroban as competing radioligand
From the text: A whole cell receptor binding assay using [^3H]ramatroban as the competing radioactive ligand was employed to evaluate the compound binding activity to human CRTH2. The radioactive ligand [^3H]ramatroban was synthesized according to Sugimoto et. al. (Eur. J. Pharmacol. 524, 30-37, 2005) to a specific activity of 42 Ci/mmol.
A cell line stably expressing human CRTH2 was established by transfecting CHO-K1 cells with two mammalian expression vectors that harbored human CRTH2 and G-alpha16 cDNAs, respectively, using FuGene® 6 transfection reagent (from Roche). Stable clones expressing CRTH2 were selected by staining each clone with BM16 (BD Pharmingen™ from BD Biosciences, a division of Becton, Dickinson and Company), which is a rat monoclonal antibody to human CRTH2. The cells were maintained as monolayer cultures in Ham's F-12 medium containing 10% fetal bovine serum, 100 units/mL penicillin, 100 μg/mL streptomycin, 2 mM glutamine, 0.5 mg/mL G418 (geneticin) for CRTH2, and 0.2 mg/mL hygromycin-B (for G-alpha 16). For whole cell receptor binding assay, the monolayer cells were rinsed once with PBS (phosphate buffered saline), dissociated using ethylenediaminetetraacetate (Versene™ EDTA from the Lonza Inc.), and suspended in PBS containing 10 mM MgCl2 and 0.06% BSA (bovine serum albumin) at 1.5×10^6 cells/mL.
The binding reactions (0.2 mL) were performed in 96-well plates at room temperature in PBS containing 1.5×10^5 cells, 10 mM MgCl2, 0.06% BSA, 20 nM [^3H]ramatroban, and test compound at various concentrations. After 1 hour of binding reactions, the cells were harvested on GF™/B filter microplates (microtiter plates with embedded glass fiber from PerkinElmer, Inc.) and washed 5 times with PBS using a Filtermate™ Harvester (a cell harvester that harvests and washes cells from microplates from PerkinElmer, Inc.). The radioactivities bound to the cells were determined using a microplate scintillation counter (TopCount® NXT, from PerkinElmer, Inc.) after adding 50 μL of Microscint™ 20 scintillation fluid (from PerkinElmer, Inc.) to each well of the filter plates. The radioactivity from non-specific binding was determined by replacing compound with 10 μM of 15(R)-15-methyl PGD2 (from Cayman Chemical Company) in the reaction mixtures. The radioactivity bound to the cells in the absence of compound (total binding) was determined by replacing compound with 0.25% of DMSO (dimethyl sulfoxide) in the reaction mixture. Specific binding data were obtained by subtracting the radioactivity of non-specific binding from each binding data.
The IC50 value is defined as the concentration of the tested compound that is required for 50% inhibition of total specific binding. In order to calculate the IC50 value, the percent inhibition data were determined for 7 concentrations for each compound. The percent inhibition for a compound at each concentration was calculated according to the following formula, [1-(specific binding in the presence of compound)/(total specific binding)]×100. The IC50 value was then obtained by fitting the percent inhibition data to a sigmoidal dose-response (4 parameter logistic) model in the XLfit® software Excel add-in program [from ID Business Solutions Ltd., model 205, where F(x)=(A+(B−A)/(1+((C/x)^D)))].

IC50 | SMILES
51.6 nM | Cc1ccc(-c2ccc(S(=O)(=O)N[C@@H]3CCCc4c(OCC(=O)O)cccc43)cc2)cc1 [Example 1-2, [(R)-5-(4′-Methyl-biphenyl-4-sulfonylamino)-5,6,7,8-tetrahydro-naphthalen-1-yloxy]-acetic acid]
200 nM | O=C(O)COc1cccc2c1CCCC2NS(=O)(=O)c1cccc(Oc2ccccc2)c1 (centres unmarked) [Example 1-3, [5-(3-Phenoxy-benzenesulfonylamino)-5,6,7,8-tetrahydro-naphthalen-1-yloxy]-acetic acid]
188 nM | O=C(O)COc1cccc2c1CCCC2NS(=O)(=O)c1ccc(Oc2ccccc2)nc1 (centres unmarked) [Example 1-6, [5-(6-Phenoxy-pyridine-3-sulfonylamino)-5,6,7,8-tetrahydro-naphthalen-1-yloxy]-acetic acid]
52.6 nM | O=C(O)COc1cccc2c1CCC[C@H]2NS(=O)(=O)c1ccc(-c2ccc(F)cc2)cc1 [Example 1-7, [(R)-5-(4′-Fluoro-biphenyl-4-sulfonylamino)-5,6,7,8-tetrahydro-naphthalen-1-yloxy]-acetic acid]
65.9 nM | COc1ccc(-c2ccc(S(=O)(=O)N[C@@H]3CCCc4c(OCC(=O)O)cccc43)cc2)cc1 [Example 1-8, [(R)-5-(4′-Methoxy-biphenyl-4-sulfonylamino)-5,6,7,8-tetrahydro-naphthalen-1-yloxy]-acetic acid]
84.1 nM | O=C(O)COc1cccc2c1CCC[C@H]2NS(=O)(=O)c1ccc(-c2ccc(Cl)cc2)cc1 [Example 1-9, [(R)-5-(4′-Chloro-biphenyl-4-sulfonylamino)-5,6,7,8-tetrahydro-naphthalen-1-yloxy]-acetic acid]
67.4 nM | CC(=O)c1ccc(-c2ccc(S(=O)(=O)N[C@@H]3CCCc4c(OCC(=O)O)cccc43)cc2)cc1 [Example 1-10, [(R)-5-(4′-Acetyl-biphenyl-4-sulfonylamino)-5,6,7,8-tetrahydro-naphthalen-1-yloxy]-acetic acid]
76.4 nM | O=C(O)COc1cccc2c1CCCC2NS(=O)(=O)c1cnc(Oc2ccc(F)cc2Cl)c(Br)c1 (centres unmarked) [Example 2-1, {5-[5-Bromo-6-(2-chloro-4-fluoro-phenoxy)-pyridine-3-sulfonylamino]-5,6,7,8-tetrahydro-naphthalen-1-yloxy}-acetic acid]
10.2 nM | O=C(O)COc1cccc2c1CCC[C@H]2NS(=O)(=O)c1ccc(Oc2ccc(Cl)cc2)c(Cl)c1 [Example 2-2, {(R)-5-[3-Chloro-4-(4-chloro-phenoxy)-benzenesulfonylamino]-5,6,7,8-tetrahydro-naphthalen-1-yloxy}-acetic acid]
60.3 nM | N#Cc1cccc(Oc2ncc(S(=O)(=O)NC3CCCc4c(OCC(=O)O)cccc43)cc2Br)c1 (centres unmarked) [Example 2-6, {5-[5-Bromo-6-(3-cyano-phenoxy)-pyridine-3-sulfonylamino]-5,6,7,8-tetrahydro-naphthalen-1-yloxy}-acetic acid]
21.2 nM | CC(C)c1cccc(Oc2ncc(S(=O)(=O)NC3CCCc4c(OCC(=O)O)cccc43)cc2Br)c1 (centres unmarked) [Example 2-9, {5-[5-Bromo-6-(3-isopropyl-phenoxy)-pyridine-3-sulfonylamino]-5,6,7,8-tetrahydro-naphthalen-1-yloxy}-acetic acid]
75.2 nM | Cc1cc(C)cc(Oc2ncc(S(=O)(=O)NC3CCCc4c(OCC(=O)O)cccc43)cc2Br)c1 (centres unmarked) [Example 2-15, {5-[5-Bromo-6-(3,5-dimethyl-phenoxy)-pyridine-3-sulfonylamino]-5,6,7,8-tetrahydro-naphthalen-1-yloxy}-acetic acid]
115 nM | O=C(O)COc1cccc2c1CCCC2NS(=O)(=O)c1cnc(Oc2ccc3c(c2)CCC3)c(Br)c1 (centres unmarked) [Example 2-17, {5-[5-Bromo-6-(indan-5-yloxy)-pyridine-3-sulfonylamino]-5,6,7,8-tetrahydro-naphthalen-1-yloxy}-acetic acid]
31.7 nM | O=C(O)COc1cccc2c1CCCC2NS(=O)(=O)c1cnc(Oc2ccc(CCO)cc2)c(Br)c1 (centres unmarked) [Example 2-22, (5-{5-Bromo-6-[4-(2-hydroxy-ethyl)-phenoxy]-pyridine-3-sulfonylamino}-5,6,7,8-tetrahydro-naphthalen-1-yloxy)-acetic acid]
